The results in this text go back to patent US10722527B2, “Abiraterone acetate lipid formulations” (Capsugel Belgium NV, priority 2015, dated 2020).

Read-outs that look alike come from different tables or passages of the source.

The data set can be described thus: Equilibrium solubility of crystalline active in digestion medium / digested placebo LMP formulation. To be noted: 37 °C, thermodynamic from solid. Type of data set: physicochemical. On the procedure:
In both cases, the majority of the active was solubilized in a lipid phase that phase-separated on centrifugation of the samples and most likely consisting of larger lipophilic colloids including multi-lamellar vesicles. Active drug in the aqueous phase (consisting of BS/PL mixed-micelles, lipid-enriched BS/PL mixed micelles and small vesicles) is considered the most readily available form for absorption.
In vitro digestion tests were performed as follows: 1 g of the active-containing formulation was dispersed in 40 mL fasted intestinal medium (2 mM Tris-maleate, 1.4 mM CaCl2.2H2O, and 150 mM NaCl, 3 mM sodium taurodeoxycholate and 0.75 mM phosphatidylcholine, 37° C.) using a pH-stat titrator as described by the LFCS Consortium (Williams, H D. et al., J. Pharm. Sci. 101 (2012), p. 3360-3380). […] Active concentration in the aqueous phase was measured by HPLC. […] Also thermodynamic solubility of the active was evaluated in digested placebo formulations for determining solubility in digested lipidic colloidal phases.

Turning to `CC(=O)O[C@H]1CC[C@@]2(C)C(=CC[C@@H]3[C@@H]2CC[C@]2(C)C(c4cccnc4)=CC[C@@H]32)C1` [Abiraterone acetate], the solubility thermodynamic reads like this: (pH 6.5, aqueous with cosolvent or surfactant or cyclodextrin, digested placebo LMP formulation, read-out: Equilibrium solubility of crystalline active in digested LMP formulations) 121 µg/mL; (pH 6.5, fassif, same fasted intestinal medium, without digested lipid formulation, read-out: Equilibrium solubility of the crystalline active in digestion medium) 27 µg/mL.
